Our source for the TGI values is PubChem BioAssay (NCI).

Molecules are shown by their SMILES.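 Tested at 5 concentrations; 48 h exposure; 96-well plates; endpoints linearly interpolated, else capped at highest concentration. TGI denotes the concentration required for complete inhibition of growth.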

In the first assay the test system is HOP-92 NSCLC. Kind of assay: inhibition of tumour cell growth, NCI panel, 48 h.
With `Cn1c(=O)c(Br)c(C=O)n(CCO[N+](=O)[O-])c1=O`, the TGI came out at 6.85 µM.

In turn, `C=CCN1C(=O)C=C(c2ccccc2)n2ncc3cccc1c32` returned a TGI above 100 µM.

The test system of a further assay is K-562 leukemia. Kind of assay: inhibition of tumour cell growth, NCI panel, 48 h.
In turn, `O=C(CN1CCCCC1)Nc1ccc2sc3ccccc3c(=O)c2n1` registered a TGI of 52.3 µM.

On to `CCOC(=O)/C(C#N)=C\c1ccc(N(CCC(=O)O)CCC(=O)O)c(I)c1`, for which the TGI is above 10 µM.

The molecule `CCOC(=O)P(=O)(O)c1ccc(N(C)Cc2ccccc2)cc1` had a TGI above 100 µM.

`CC(=O)C(=C(c1ccccc1)c1ccccc1)c1ccccc1` displayed a TGI above 100 µM.

The molecule `C=CCNC(=O)NC(=O)CSC1=NNC2(C(=O)N1)c1ccccc1-c1ccccc12` returned a TGI above 10 µM.

For the molecule `O=C1/C(=C/c2cccc(F)c2)CCCc2ccccc21`, the TGI is 32.1 µM.

Molecule `CC1=NN(C(=O)c2ccccc2O)C(=O)/C1=C/c1ccco1` registered a TGI above 100 µM.

`COc1ccc2[nH]cc(CCNC(=O)[C@H](Cc3ccccc3)NC(=O)[C@@H](NCC(F)(F)F)C(C)C)c2c1` yielded a TGI above 100 µM.

In the case of `CCc1n[nH]c(=O)n1/N=C/c1c(O)ccc2ccccc12`, the TGI was above 100 µM.

The molecule `C(=C\c1cccs1)/c1cccc(/C=C/c2cccs2)n1` came in with a TGI above 100 µM.

The molecule `Cn1c(=O)c(Br)c(C=O)n(CCO[N+](=O)[O-])c1=O` registered a TGI of 8.82 µM.

As for `NN(CC(=O)O)CC(=O)O`, the TGI was above 100 µM.

In a further assay the test system is MCF7 breast. In words: inhibition of tumour cell growth, NCI panel, 48 h.
`O=C(CN1CCCCC1)Nc1ccc2sc3ccccc3c(=O)c2n1` came in with a TGI of 77.9 µM.

Molecule `CCOC(=O)/C(C#N)=C\c1ccc(N(CCC(=O)O)CCC(=O)O)c(I)c1` showed a TGI above 10 µM.

In the case of `CCOC(=O)P(=O)(O)c1ccc(N(C)Cc2ccccc2)cc1`, the TGI was above 100 µM.

The molecule `C=C(C)C1=CCC[C@]2(C1)N=C(OC)[C@@H](C(C)C)N=C2OC` registered a TGI above 100 µM.

In turn, `CC(=O)C(=C(c1ccccc1)c1ccccc1)c1ccccc1` registered a TGI above 100 µM.

As to `O=C1NC2ON=C(c3ccccc3)C2C2ON=C(c3ccccc3)N12` (stereo unspecified), the TGI is above 100 µM.

Molecule `O=[N+]([O-])/C(C(Cl)=C(Cl)Cl)=C(\N1CCOCC1)n1nnc2ccccc21` yielded a TGI of 56.1 µM.

For the molecule `C=CCNC(=O)NC(=O)CSC1=NNC2(C(=O)N1)c1ccccc1-c1ccccc12`, the TGI is above 10 µM.

Molecule `O=C1/C(=C/c2cccc(F)c2)CCCc2ccccc21` returned a TGI of 30.5 µM.

As to `CC1=NN(C(=O)c2ccccc2O)C(=O)/C1=C/c1ccco1`, the TGI came out at 37.9 µM.

`COc1ccc2[nH]cc(CCNC(=O)[C@H](Cc3ccccc3)NC(=O)[C@@H](NCC(F)(F)F)C(C)C)c2c1`: the TGI was found to be 36.5 µM.

`CCc1n[nH]c(=O)n1/N=C/c1c(O)ccc2ccccc12` returned a TGI above 100 µM.

For `C(=C\c1cccs1)/c1cccc(/C=C/c2cccs2)n1`, the TGI is above 100 µM.

The molecule `Cn1c(=O)c(Br)c(C=O)n(CCO[N+](=O)[O-])c1=O` returned a TGI of 6.17 µM.

For the molecule `NN(CC(=O)O)CC(=O)O`, the TGI was above 100 µM.

Turning to `C=CCN1C(=O)C=C(c2ccccc2)n2ncc3cccc1c32`, the TGI was above 100 µM.

In another assay the test system is NCI-H460 lung. In words: inhibition of tumour cell growth, NCI panel, 48 h.
On to `O=C(CN1CCCCC1)Nc1ccc2sc3ccccc3c(=O)c2n1`, for which the TGI stood at 36.5 µM.

For `CCOC(=O)/C(C#N)=C\c1ccc(N(CCC(=O)O)CCC(=O)O)c(I)c1`, the TGI is above 10 µM.

Turning to `C=C(C)C1=CCC[C@]2(C1)N=C(OC)[C@@H](C(C)C)N=C2OC`, the TGI was above 100 µM.

On to `CC(=O)C(=C(c1ccccc1)c1ccccc1)c1ccccc1`, for which the TGI was above 100 µM.

Molecule `O=C1NC2ON=C(c3ccccc3)C2C2ON=C(c3ccccc3)N12` (stereo unspecified) showed a TGI above 100 µM.

`O=[N+]([O-])/C(C(Cl)=C(Cl)Cl)=C(\N1CCOCC1)n1nnc2ccccc21` registered a TGI of 45.6 µM.

The molecule `C=CCNC(=O)NC(=O)CSC1=NNC2(C(=O)N1)c1ccccc1-c1ccccc12` registered a TGI above 10 µM.

For `O=C1/C(=C/c2cccc(F)c2)CCCc2ccccc21`, the TGI amounted to 31.1 µM.

For `CC1=NN(C(=O)c2ccccc2O)C(=O)/C1=C/c1ccco1`, the TGI was above 60.5 µM.

Molecule `COc1ccc2[nH]cc(CCNC(=O)[C@H](Cc3ccccc3)NC(=O)[C@@H](NCC(F)(F)F)C(C)C)c2c1` had a TGI of 46.3 µM.

Regarding `C(=C\c1cccs1)/c1cccc(/C=C/c2cccs2)n1`, the TGI is above 100 µM.

The molecule `Cn1c(=O)c(Br)c(C=O)n(CCO[N+](=O)[O-])c1=O` registered a TGI of 31.5 µM.

For `NN(CC(=O)O)CC(=O)O`, the TGI is above 100 µM.

A further assay deals with NCI-H522 lung. In words: inhibition of tumour cell growth, NCI panel, 48 h.
Regarding `O=C(CN1CCCCC1)Nc1ccc2sc3ccccc3c(=O)c2n1`, the TGI turned out to be 23.1 µM.

As to `CCOC(=O)/C(C#N)=C\c1ccc(N(CCC(=O)O)CCC(=O)O)c(I)c1`, the TGI is above 10 µM.

Molecule `CCOC(=O)P(=O)(O)c1ccc(N(C)Cc2ccccc2)cc1` displayed a TGI above 100 µM.

In turn, `C=C(C)C1=CCC[C@]2(C1)N=C(OC)[C@@H](C(C)C)N=C2OC` displayed a TGI above 100 µM.

`CC(=O)C(=C(c1ccccc1)c1ccccc1)c1ccccc1` yielded a TGI above 100 µM.

In turn, `O=C1NC2ON=C(c3ccccc3)C2C2ON=C(c3ccccc3)N12` (stereo unspecified) came in with a TGI above 100 µM.

For `O=[N+]([O-])/C(C(Cl)=C(Cl)Cl)=C(\N1CCOCC1)n1nnc2ccccc21`, the TGI stood at 34.1 µM.

With `C=CCNC(=O)NC(=O)CSC1=NNC2(C(=O)N1)c1ccccc1-c1ccccc12`, the TGI is above 10 µM.

`O=C1/C(=C/c2cccc(F)c2)CCCc2ccccc21` gave a TGI of 25.5 µM.

In the case of `CC1=NN(C(=O)c2ccccc2O)C(=O)/C1=C/c1ccco1`, the TGI came out at 37.7 µM.

The molecule `COc1ccc2[nH]cc(CCNC(=O)[C@H](Cc3ccccc3)NC(=O)[C@@H](NCC(F)(F)F)C(C)C)c2c1` gave a TGI of 32.1 µM.

`CCc1n[nH]c(=O)n1/N=C/c1c(O)ccc2ccccc12`: the TGI is above 100 µM.

On to `NN(CC(=O)O)CC(=O)O`, for which the TGI is above 100 µM.

For the molecule `C=CCN1C(=O)C=C(c2ccccc2)n2ncc3cccc1c32`, the TGI was above 100 µM.

A further assay has as its system NCI/ADR-RES ovarian. Kind of assay: inhibition of tumour cell growth, NCI panel, 48 h.
Turning to `O=C(CN1CCCCC1)Nc1ccc2sc3ccccc3c(=O)c2n1`, the TGI stood at 36.1 µM.

With `CCOC(=O)/C(C#N)=C\c1ccc(N(CCC(=O)O)CCC(=O)O)c(I)c1`, the TGI is above 10 µM.

Take `CCOC(=O)P(=O)(O)c1ccc(N(C)Cc2ccccc2)cc1`: the TGI is above 100 µM.

`C=C(C)C1=CCC[C@]2(C1)N=C(OC)[C@@H](C(C)C)N=C2OC` gave a TGI above 100 µM.

`CC(=O)C(=C(c1ccccc1)c1ccccc1)c1ccccc1`: the TGI was above 100 µM.

`O=C1NC2ON=C(c3ccccc3)C2C2ON=C(c3ccccc3)N12` (stereo unspecified) came in with a TGI above 100 µM.

On to `O=[N+]([O-])/C(C(Cl)=C(Cl)Cl)=C(\N1CCOCC1)n1nnc2ccccc21`, for which the TGI was found to be 65.1 µM.

As to `C=CCNC(=O)NC(=O)CSC1=NNC2(C(=O)N1)c1ccccc1-c1ccccc12`, the TGI is above 10 µM.

In the case of `O=C1/C(=C/c2cccc(F)c2)CCCc2ccccc21`, the TGI was 33.1 µM.

Turning to `CC1=NN(C(=O)c2ccccc2O)C(=O)/C1=C/c1ccco1`, the TGI came to 85.3 µM.

In turn, `COc1ccc2[nH]cc(CCNC(=O)[C@H](Cc3ccccc3)NC(=O)[C@@H](NCC(F)(F)F)C(C)C)c2c1` displayed a TGI of 41 µM.

As for `CCc1n[nH]c(=O)n1/N=C/c1c(O)ccc2ccccc12`, the TGI was above 100 µM.

As for `C(=C\c1cccs1)/c1cccc(/C=C/c2cccs2)n1`, the TGI was above 100 µM.

As for `Cn1c(=O)c(Br)c(C=O)n(CCO[N+](=O)[O-])c1=O`, the TGI was determined as 4.31 µM.
